Laboratory results taken from patent US10370385B2, “Tricyclic mosquitocides and methods of making and using thereof” (The Arizona Board of Regents on Behalf of the University of …, priority 2014, dated 2019).

How the values were obtained:
blood-fed mosquitoes = experiment: Evaluation of follicle size after microinjection into blood-fed mosquitos; format: in vivo, Aedes aegypti; conditions: 200 nl of 0.7 mM compound microinjected one hour after blood feeding; ovaries dissected 48 h post blood meal; DMSO control 452.8±6.4 μm
Method: The mosquitos were reared in environmental chambers. Larvae were then fed with a mixture of tropical flakes, rat chow, liver powder, or cat food pellets. Adult pests were maintained on 10% sucrose. Four-day old mosquitos were allowed to feed on human blood supplemented with fresh ATP. One hour after blood feeding, the mosquitos were briefly chilled at 4° C. to immobilize. 200 nl of the compound, 4-isopropyl-8-phenyl-1,3,4,6,6a,9b-hexahydrothiopyrano [3,4-e]isoindole-7,9(8H,9aH)-dione, was diluted in water to a final concentration of 0.7 mM before use. Then the compound was microinjected with a microinjector into fully fed mosquitos. For each experiment, the mosquitos were also microinjected with 2% DMSO (control). Mosquitos were allowed to feed 10% sucrose, and 48 h post blood meal, ovaries were dissected from the injected mosquitos in 1×PBS under a microscope. Ovaries were teased to separate follicles, and the images were digitally captured for follicle length measurement.

[1] = system: mosquito larvae (second instar); experiment: Evaluation of mosquito larval mortality; format: in vivo, Aedes aegypti; conditions: 0.2 mM in larval growth media, 24 hours of exposure
Method: Two-day-old second instar larvae were transferred to wells in a plate containing 1 ml of larval growth media. The 4-isopropyl-8-phenyl-1,3,4,6,6a,9b-hexahydrothiopyrano [3,4-e]isoindole-7,9(8H,9aH)-dione and DMSO (control) were added directly to the media and swirled. The final concentration of the 4-isopropyl-8-phenyl-1,3,4,6,6a,9b-hexahydrothiopyrano [3,4-e]isoindole-7,9(8H,9aH)-dione in each well was 0.2 mM, the DMSO concentration was 0.2%. The plates were kept in the environmental chamber. Mosquito larvae were examined under a microscope for any sign of mortality 24 hours after exposure. Data obtained from at least three biological replicates were statistically analyzed with the Bonferroni post tests.

[2] = system: Aedes aegypti (Rockefeller strain) mosquitoes; experiment: Microinjection into female mosquitoes before blood feeding; observation for defective phenotypes (midgut, blood meal storage); format: in vivo; conditions: 200 nL of 5.0 mM compound in 5% DMSO microinjected into four day old females; fed human blood one day later
Method: Aedes aegypti (Rockefeller strain) mosquitoes were reared in standard conditions. Four day old female mosquitoes were microinjected with 200 nL of 5% DMSO (control) or the compound described in Example 1, i.e. 4-isopropyl-8-phenyl-1,3,4,6,6a,9b-hexahydrothiopyrano [3,4-e]isoindole-7,9(8H,9aH)-dione (5.0 mM in 5% DMSO), using Nanoject II (Drummond). The injected mosquitoes were recovered for one day in the environmental chamber and fed on warmed human blood through a membrane feeder. Twenty fully fed mosquitoes from each group were observed under a dissecting microscope for defective phenotypes, including midgut and primary follicle development in the ovaries during the first gonotrophic cycle.

With `CC(C)[C@@H]1CSC[C@@H]2C1=CC[C@@H]1C(=O)N(c3ccccc3)C(=O)[C@@H]12` [4-isopropyl-8-phenyl-1,3,4,6,6a,9b-hexahydrothiopyrano [3,4-e]isoindole-7,9(8H,9aH)-dione] as the molecule, how does the follicle size (blood-fed mosquitoes) read?
Its follicle size is 145.6±11.0 μm.

And the “number of mosquito larvae died” value [1]?
Its value is 18 out of 45 mosquito larvae.

And the mosquito larvae died ([1]; all control larvae survived)?
The mosquito larvae died was 40%.

And the “blood-fed mosquitoes exhibiting the defect in the alimentary canal (blood meal misdirected into the ventral diverticulum)” value [2]?
Its value is 40%.
